# Measurements published in patent US20260315434A1, “USE OF GUAIACOL SESQUITERPENE LACTONE DERIVATIVES” (NANJING UNIVERSITY OF CHINESE MEDICINE, priority 2023, published 2026).
# Columns and labels:
# T cells / MDSCs = assay: Promotion of T cell proliferation in a co-culture model of MDSCs and T cells; assay type: cell-based, mouse; conditions: 1 μM, MDSCs treated 12 hours, co-culture of MDSCs and T cells, compared to the control group
# Method in brief: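 Bone-marrow MDSCs, after compound treatment, were co-cultured 48 h at 1:1 with CFDA-SE-labelled (10 μM solution), activated splenic T cells. Proliferation of CD3+ T cells was read by flow cytometry.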
# Hepa1-6 cells = assay: Antitumor effect in Hepa1-6 mouse hepatocellular carcinoma subcutaneous xenograft model; assay type: in vivo, C57BL/6 mice; conditions: 40 μmol/kg/d oral, 2 weeks
# H22 cells = assay: Antitumor effect in H22 mouse hepatocellular carcinoma subcutaneous xenograft model; assay type: in vivo, BALB/c mice; conditions: oral, 2 weeks
# MDSCs = assay: Proportion of MDSCs in tumor and spleen of H22 xenograft mice (flow cytometry); assay type: in vivo, BALB/c mice
# Protocol: Once all tumors were dissected, nail-sized tumor pieces were transferred to 1.5 mL Eppendorf tubes and minced with scissors. Transfer the minced tumor tissue suspension to a 15 mL centrifuge tube containing 3-5 mL of digestive enzymes (Collagenase IV 1 mg/mL, Hyaluronidase 1 mg/mL, DNase 120 U/mL). Incubate at 200 rpm and 37° C. for 1 hour. After digestion, pass the mixture through a 200-mesh sieve to obtain the tumor cell suspension. Centrifuge the resulting tumor suspension at 1600 rpm for 5 min, aspirate the supernatant, resuspend cells in 1 mL of 1×PBS per tube. Transfer the cell suspension to a 1.5 mL Eppendorf tube, centrifuge at 1600 rpm for 5 min, remove the supernatant, resuspend cells in 100 μL of 1×PBS per tube, add 1 μL of dead/live dye to each tube, mix thoroughly, and incubate at room temperature in the dark for 15 min. […] Position the spleen on a 200-mesh cell strainer. Gently press the spleen using a 10 mL syringe needle. […] Transfer the washed splenocyte suspension into a 15 mL centrifuge tube. Centrifuge at 1600 rpm for 5 min to collect cells. Wash once with 1×PBS. Add 3 mL red blood cell lysis buffer (diluted with ddH2O) to each tube and incubate for 5 min. After lysis, add 10 mL 1×PBS to each tube to terminate lysis. Centrifuge at 1600 rpm for 5 min. Add 1 mL 1×PBS to each 15 mL centrifuge tube, transfer to 1.5 mL EP tubes, and centrifuge at 1600 rpm for 5 min. Add 1 mL 1×PBS to each tube containing stained tumor cells and lysed spleen cells for one wash, centrifuge at 1600 rpm for 5 min, and remove the supernatant. Resuspend tumor cells and spleen cells separately in 100 μL 1×PBS. Add 1 μL FcX™ antibody to each tube and incubate at room temperature in the dark for 10 min. After incubation, sequentially add 1 μL each of CD45, CD11b, Gr1 antibodies. Incubate at 4° C. in the dark for 30 min. After incubation, wash once with 1×PBS, discard the supernatant, resuspend cells in 300 μL 1×PBS, filter the membrane into a flow cytometry tube, and proceed to instrument analysis.
# T cells = assay: Proportion of T cells in tumor and spleen of H22 xenograft mice (flow cytometry); assay type: in vivo, BALB/c mice
# Protocol: Once all tumors were dissected, nail-sized tumor pieces were transferred to 1.5 mL Eppendorf tubes and minced with scissors. Transfer the minced tumor tissue suspension to a 15 mL centrifuge tube containing 3-5 mL of digestive enzymes (Collagenase IV 1 mg/mL, Hyaluronidase 1 mg/mL, DNase 120 U/mL). Incubate at 37° C. on a shaking incubator at 200 rpm for 1 hour. After digestion, pass the mixture through a 200-mesh sieve to obtain the tumor cell suspension. Centrifuge the resulting tumor suspension at 1600 rpm for 5 min, aspirate the supernatant, resuspend cells in 1 mL of 1×PBS per tube. Transfer the cell suspension to a 1.5 mL Eppendorf tube, centrifuge at 1600 rpm for 5 min, remove the supernatant, resuspend cells in 100 μL of 1×PBS per tube, add 1 μL of dead/live dye to each tube, mix thoroughly, and incubate at room temperature in the dark for 15 min. […] Position the spleen on a 200-mesh cell strainer. Gently press the spleen using a 10 mL syringe needle. […] Transfer the splenocyte suspension into a 15 mL centrifuge tube. Centrifuge at 1600 rpm for 5 min to collect cells. Wash once with 1×PBS. Add 3 mL red blood cell lysis buffer (diluted with ddH2O) to each tube and incubate for 5 min. After lysis, add 10 mL 1×PBS to each tube to terminate lysis. Centrifuge at 1600 rpm for 5 min. Add 1 mL 1×PBS to each 15 mL centrifuge tube, transfer to 1.5 mL EP tubes, and centrifuge at 1600 rpm for 5 min. Add 1×PBS to each tube containing stained tumor cells and lysed spleen cells for one wash, centrifuge at 1600 rpm for 5 min, and remove the supernatant. Resuspend tumor cells and spleen cells separately in 100 μL 1×PBS. Add 1 μL FcX™ antibody to each tube and incubate at room temperature in the dark for 10 min. After incubation, sequentially add 1 μL each of CD45, CD3, and CD8 antibodies to each tube. Incubate at 4° C. in the dark for 30 min. After staining, wash once with 1 mL PBS. Centrifuge at 1600 rpm for 5 min. Discard the supernatant. Resuspend cells in 300 μL 1×PBS. Filter the cell suspension into a flow cytometry tube and proceed to instrument analysis.
# 4T1 cells = assay: Antitumor effect in 4T1 mouse mammary carcinoma xenograft model; assay type: in vivo, BALB/c mice; conditions: oral, 3 weeks
# Protocol: 4T1 cells were cultured and expanded in vitro. […] A 100 μL aliquot of this suspension was injected subcutaneously into the left forelimb axilla of female BALB/c mice. […] Daily oral administration was performed for 3 weeks. During the treatment period, mouse body weight and tumor diameter were measured daily. At the end of the experiment, mice were euthanized by cervical dislocation, and tumors were removed for weighing. Tumor volume (TV) was calculated using the formula: TV=½×a×b^2, where a represents the longest diameter of the tumor and b represents the shortest diameter.
# [1] = Water solubility testing of compounds (HPLC); conditions: deionized water, 37 °C
# [2] = system: inflammatory cytokines (IL-1β, IL-6) in lung tissue; assay: LPS-induced acute lung injury, inflammatory cytokines by ELISA; assay type: in vivo, C57BL/6 mice; conditions: 5 mg/kg; LPS 2411.32
# Protocol: After a 7-day acclimatization period, mice were used for subsequent experiments.
# The abdomen was opened, and the lungs were removed. They were rinsed twice with pre-chilled PBS. […] The remaining tissue was stored at −70° C. for future use.
# Data Statistics: All data are expressed as means S.E.M. Statistical differences between groups were analyzed using one-way ANOVA and t-tests in SPSS software. P values less than 0.05 were considered statistically significant.
# [3] = system: inflammatory factors (TNF, IL-6, IL-1) in renal tissue; assay: Lupus nephritis, renal inflammatory factor mRNA; assay type: in vivo, MRL/lpr mice; conditions: 3 mg/kg, oral, 8 weeks
# Protocol: Experimental animals: MRI/MpJ and MRL/lpr mice, female, 10 weeks old, purchased from GemPharmatech LLC. Production license number: SCXK(Su)2023-0009. […] They were acclimated for 7 days before use in experiments.
# Oral administration was performed continuously for 8 weeks.
# Allow blood to stand at room temperature for 2 hours, then centrifuge at 3000 rpm for 20 minutes. Aspirate the serum, aliquot it, and store at −70° C. for future use. After blood collection, euthanize mice by cervical dislocation. Open the abdominal cavity, remove kidneys, and dissect out perirenal fat and capsules. […] Store remaining tissues at −70° C. for future use.
# [4] = system: mouse ear atopic dermatitis; assay: MC903-induced atopic dermatitis of the ear, ointment: ear thickness, dermatitis score, lesions; assay type: in vivo; conditions: 1% ointment, 7 days; max score 12
# Protocol: (1) Preparation of Oil Phase: Weigh white petrolatum, light liquid paraffin, glyceryl monostearate, ethylparaben, and cetyl alcohol. Heat to 65° C. while stirring until dissolved. Slowly add the dissolved active pharmaceutical ingredient (API) while continuing to stir until uniformly mixed. Set aside.
# (2) Aqueous Phase Preparation: Weigh purified water and Tween 80, heat to 70° C., stir to dissolve, and set aside;
# (3) Emulsification: Slowly add the aqueous phase to the oil phase while maintaining 65° C., homogenize, and continue stirring for 30 min;
# (4) Cooling: Stop heating, continue stirring, gradually reduce to room temperature, cool to form an ointment, and fill containers.
# (§1) Dissolve these substances in a small amount of propylene glycol, then place the resulting solution into the aforementioned pre-cooled blank ointment base. Finally, add water to make the total mass up to 10 g, and grind the mixture thoroughly in a mortar.
# (§2) Except for the Normal group, all other groups underwent AD modeling: 20 μL of MC903 solution (also known as calcipotriol, purchased from Shanghai Yuanye Biotechnology Co., Ltd., used for inducing atopic models) was applied to each mouse's ears once daily for 14 consecutive days to induce the atopic dermatitis model. […] Measure ear thickness changes every 2 days using an electronic caliper before modeling and after treatment initiation.
# Skin Lesion Severity Score: Daily skin lesion severity was assessed in mice using the following criteria, primarily encompassing four symptoms: 1) erythema/hemorrhage; 2) dryness; 3) desquamation/erosion; 4) edema. Each symptom was scored from 0 to 3 based on lesion severity: no symptoms=0 points, mild=1 point, moderate=2 points, severe=3 points. […] Higher scores indicated more severe lesions, with a maximum score of 12. Statistical analysis was performed on the data.
# [5] = system: inflammatory markers in the ears of AD mice; assay: MC903-induced atopic dermatitis of the ear, ointment: mRNA of inflammatory markers; assay type: in vivo, mouse; conditions: 1% ointment
# Protocol: as §1, §2
# [6] = system: IgE and inflammatory markers of AD mice; assay: MC903-induced atopic dermatitis, oral administration: serum IgE and ear mRNA of inflammatory markers; assay type: in vivo, mouse; parameters: scale not given here; conditions: 5 mg/kg
# Protocol: as §2
# [7] = system: inflammatory cytokines (TNF, IL-6, IL-1) in lung tissue; assay: LPS-induced sepsis, lung inflammatory factor mRNA (Q-PCR); conditions: 5 mg/kg
# Excerpt: (§3) They were acclimated for 7 days before experimentation.
# (§4) The normal and model groups received equal volumes of solvent (0.5% CMC-Na) via oral gavage.
# (§5) Specimen Collection: One hour after the final drug administration, mice were euthanized by cervical dislocation. The abdominal cavity was opened, and the lungs, liver, and kidneys were removed. These organs were rinsed twice with pre-chilled PBS. Tissue samples were excised from the mouse lungs, left hepatic lobe, and kidneys. […] Remaining tissues were stored at −70° C. for future use.
# (§6) Accurately weigh 20 mg of kidney, lung, and liver tissue. Rinse with pre-chilled PBS solution, cut into small pieces using ophthalmic scissors, and place into a glass homogenizer. Add 1 mL of Trizol reagent and grind to prepare tissue homogenate. Transfer the homogenate to a RNAse-free 1.5 mL EP tube and lyse on ice for 10 min. Add 200 μL chloroform, vortex vigorously, and let stand on ice for 3-5 min. Centrifuge at 12,000 rpm and 4° C. for 15 min. Carefully transfer the supernatant to a new RNAse-free 1.5 mL EP tube. Add an equal volume of pre-chilled isopropanol, incubate on ice for 30 min, then centrifuge at 12,000 rpm and 4° C. for 10 min. Discard the supernatant. […] Subsequently, dissolve the pellet in 10 μL DEPC-treated water. Dilute 1 μL of the total RNA solution 100-fold and measure the OD values at 260 nm and 280 nm using a full-wavelength microplate reader.
# (§7) Following the method described in the kit manual, subsequent experiments were conducted using a 20 μL reverse transcription reaction system:
# (§8) Primers were designed based on the nucleotide sequence of the mouse in GenBank and synthesized.
# (§9) Perform subsequent experiments using a 20 μL reaction system according to the kit instructions:
# (§10) After adding the above reagents to micro reaction tubes, seal them with the cap and place them in the Q-PCR instrument. Set the parameters according to the following reaction conditions to perform the amplification experiment.
# (§11) Record the threshold cycle (Ct) values for each group and perform calculation and analysis using the 2^−ΔΔCt method (setting the expression level of the reference gene Gapdh as 1 to correct the expression levels of the target genes).
# (§12) Data Statistics: All data are presented as Means±S.E.M. Analysis of variance (ANOVA) was performed to assess the significance of differences. Groups showing significant differences in ANOVA were further compared using one-way ANOVA and Dunnett's test. A P-value <0.05 was considered statistically significant.
# [8] = system: inflammatory factors (TNF, IL-6, IL-1) in renal tissue; assay: LPS-induced sepsis, renal inflammatory factor mRNA (Q-PCR); conditions: 5 mg/kg
# Excerpt: as §3, §4, §5, §6, §7, §8, §9, §10, §11, §12
# [9] = system: inflammatory factors (TNF, IL-6, IL-1) in liver tissue; assay: LPS-induced sepsis, hepatic inflammatory factor mRNA (Q-PCR); conditions: 5 mg/kg
# Excerpt: as §3, §4, §5, §6, §7, §8, §9, §10, §11, §12
# [10] = 40 μmol/kg/day, oral, 2 weeks, spleen, flow cytometry
# [11] = 40 μmol/kg/day, oral, 2 weeks, tumor, flow cytometry
# [12] = compared with solvent control, result in words
structure (smiles),measurement,setting,value
C=C1C(=O)O[C@H]2[C@H]1CCC(C)=C1CC[C@@](C)(OC(=O)NCCN3CCOCC3)[C@@H]12 [Compound 99],T-cell proliferation rate (%),T cells / MDSCs,+ (T-cell proliferation rate within the 0-20% range compared to the control group)
same,Tumor Inhibition Rate,Hepa1-6 cells,80.05%
same,Tumor weight,Hepa1-6 cells; solvent 0.92 ± 1.41,0.18 ± 0.40 g
same,Tumor Suppression Rate (%),"H22 cells; 40 μmol/kg/day, H22 xenograft",25.18%
same,Tumor weight,"H22 cells; 40 μmol/kg/day, H22 xenograft",6.40 ± 1.59 g
same,"tumor-inhibiting effect, H22",H22 cells; result in words,tumor-inhibiting effects
same,Spleen MDSCs (%),MDSCs; [10],30.90 ± 10.21 %
same,Tumor-associated MDSCs (%),MDSCs; [11],34.85 ± 7.99 %
same,proportion of MDSCs in tumor tissues and spleens,MDSCs; [12],significantly reduced
same,Spleen T cells (%),T cells; [10],31.71 ± 2.95 %
same,Tumor T cells (%),T cells; [11],22.81 ± 5.33 %
same,proportion of T cells in tumor tissues and spleens,T cells; [12],significantly increased
same,Tumor inhibition rate (%),"4T1 cells; 40 μmol/kg/day, 4T1",20.94%
same,Tumor weight,"4T1 cells; 40 μmol/kg/day, 4T1",1.43 ± 0.19 g
same,"antitumor effect, 4T1",4T1 cells; result in words,no significant antitumor effects
same,Water-solubility,[1],220.8 mg/mL
"C[C@@H]1C[C@H]2[C@@H]3CCC4=CC(=O)C=C[C@]4(C)[C@@]3(F)[C@@H](O)C[C@]2(C)[C@@]1(O)C(=O)CO [Dex, Dexamethasone, reference compound]",IL-1β,[2],1873.00 ± 86.52 pg/mL
same,"Il1 mRNA expression, kidney",[3],3.47 ± 0.35
same,"Il6 mRNA expression, kidney",[3],1.12 ± 0.24
same,"Tnf mRNA expression, kidney",[3],1.94 ± 0.30
same,"Dermatitis Score, ear",[4],3.50 ± 0.22
same,"I14 mRNA expression, ear",[5],1.35 ± 0.30
same,"I113 mRNA expression, ear",[5],1.91 ± 0.39
same,"I131 mRNA expression, ear",[5],1.86 ± 0.44
same,"Il1 mRNA expression, ear",[5],12.69 ± 4.22
same,"TSLP mRNA expression, ear",[5],1.30 ± 0.17
same,"I14 mRNA expression, ear",[6],2.59 ± 0.38
same,"I113 mRNA expression, ear",[6],1.89 ± 0.20
same,"I131 mRNA expression, ear",[6],2.06 ± 0.20
same,"Il1 mRNA expression, lung",[7]; LPS 19.01,7.20 ± 0.36
same,"Il6 mRNA expression, lung",[7]; LPS 20.34,9.88 ± 0.80
same,"Il1 mRNA expression, kidney",[8]; LPS 7.99,6.05 ± 1.03
same,"Il6 mRNA expression, kidney",[8]; LPS 8.80,5.76 ± 0.72
same,"Il6 mRNA expression, liver",[9]; LPS 11.34,4.27 ± 1.33
same,"Il1 mRNA expression, liver",[9]; LPS 11.52,7.54 ± 0.70
